# Assay results published in US20100081679A1, “DIAMINOPYRIMIDINES AS FUNGICIDES” (Bayer CropScience AG, priority 2007, published 2010).
# Marks after values point to notes of the source that are not given here.
# Assay: logP determination via retention times, calibrated with unbranched alkan-2-ones
# Assay type: physicochemical
# Details: HPLC on reversed-phase C 18, EEC Directive 79/831 Annex V.A8; method *: 40° C., 0.1% aqueous formic acid and acetonitrile, linear gradient 10% to 95% acetonitrile
row,SMILES,logP
1,O=C1NC(=O)C(c2ccc(Nc3ncc(Cl)c(NCC4CC4)n3)cc2)N1 (stereo not shown) [compound 512],1.27*
2,O=C1COCCN1c1ccc(Nc2ncc(Cl)c(NC3CC3)n2)cc1 [compound 495],1.17*
3,CC(=O)Cc1ccc(Nc2ncc(Br)c(NC3CC3)n2)cc1 [compound 565],1.58*
4,CC(=O)Nc1ccc(Nc2ncc(Br)c(NCC3CC3)n2)cn1 [compound 481],1.47*
5,O=C1CCCN1c1cc(Nc2ncc(Cl)c(NC3CC3)n2)ccc1F [compound 536],1.53*
6,CCCCC(=O)Oc1ccc(Nc2ncc(Cl)c(NCC3CC3)n2)cc1 [compound 551],3.8*
7,CN(C)C(=O)Nc1ccc(Nc2ncc(Cl)c(NCC3CC3)n2)cc1 [compound 548],1.49*
8,CC(=O)c1cc(Nc2ncc(Cl)c(NCC3CC3)n2)ccc1Cl [compound 540],2.51*
9,CCOC(=O)Nc1ccc(Nc2ncc(Cl)c(NCC3CC3)n2)cc1O [compound 542],1.68*
10,COc1cc(Nc2ncc(Cl)c(NCC3CC3)n2)ccc1NC(C)=O [compound 503],1.53*

# Same assay, conditions: HPLC on reversed-phase C 18, method **: 43° C.; 0.1% aqueous phosphoric acid and acetonitrile; linear gradient 10% to 95% acetonitrile
row,SMILES,logP
1,CSc1cccc(Nc2ncc(Cl)c(N(C)CC3CC3)n2)c1 [compound 968],3.6**
2,O=C1CCCN1c1cc(Nc2ncc(Br)c(NC3CC3)n2)ccc1F [compound 771],1.61**

# Same assay, conditions: HPLC on reversed-phase C18, method *: 40° C., 0.1% aqueous formic acid and acetonitrile, linear gradient 10% to 95% acetonitrile
row,SMILES,logP
1,FC(F)Oc1ccc(Nc2ncc(Br)c(NC3CC3)n2)cc1 [compound 748],2.21*
2,O=C(O)Cc1cccc(Nc2ncc(Cl)c(NC3CC3)n2)c1 [compound 768],1.23*
3,CC(C)Sc1cccc(Nc2ncc(Br)c(NC3CC3)n2)c1 [compound 707],3.38*
4,Clc1cnc(Nc2ccccc2-c2ccccc2)nc1NC1CC1 [compound 900],2.46*
5,N#CCc1cccc(Nc2ncc(Cl)c(NC3CC3)n2)c1 [compound 712],1.66*
6,CCOc1cccc(Nc2ncc(Cl)c(NCC3CC3)n2)c1 [compound 692],2.21*
7,O=C(c1ccc(Nc2ncc(C(F)(F)F)c(NC3CC3)n2)cc1)N1CCCCC1 [compound 725],2.86*
8,Clc1cnc(Nc2cccc(-c3ccco3)c2)nc1NC1CC1 [compound 714],2.54*
9,Cc1cccc(Nc2ncc(Br)c(NC3CC3)n2)c1 [compound 730],2.07*
10,O=C1CCCCN1c1cccc(Nc2ncc(Cl)c(NC3CC3)n2)c1 [compound 713],1.47*
11,CSc1ccc(Nc2ncc(Cl)c(NCC3CC3)n2)cc1 [compound 674],2.18*

# Same assay, conditions: HPLC on reversed-phase C18, method *: 40° C.; mobile phase 0.1% aqueous formic acid and acetonitrile; linear gradient 10% to 95% acetonitrile
row,SMILES,logP
1,C#Cc1cccc(Nc2ncc(Br)c(NC3CC3)n2)c1 [compound 340],2.41*
2,COc1cc(Nc2ncc(Cl)c(NC3(c4ccccc4Cl)CC3)n2)cc(OC)c1OC [compound 320],3.06*
3,CS(=O)(=O)c1ccc(Nc2ncc(Br)c(NC3CC3)n2)cc1 [compound 345],1.9*
4,COC(=O)N(C)c1ccc(Nc2ncc(Cl)c(NC3CC3)n2)cc1 [compound 339],1.63*
5,COC(=O)Nc1cccc(Nc2ncc(Br)c(NC3CC3)n2)c1 [compound 309],1.61*
6,CO/N=C/c1ccc(Nc2ncc(Br)c(NC3CC3)n2)cc1 [compound 338],2.55*
7,CCOc1cccc(Nc2ncc(Cl)c(NC3CC3)n2)c1 [compound 293],2.06*

# Same assay, conditions: HPLC on reversed-phase C18 column (EEC Directive 79/831 Annex V.A8); method *: 40° C.; 0.1% aqueous formic acid and acetonitrile; linear gradient 10% to 95% acetonitrile
row,SMILES,logP
1,COC(=O)Nc1cccc(Nc2ncc(Cl)c(NC3CC3)n2)c1 [compound 193],1.44*
2,CC(C)Sc1cccc(Nc2ncc(Cl)c(NC3CC3)n2)c1 [compound 264],3.18*
3,Cc1cc(Nc2ncc(Cl)c(NC3CC3)n2)ccc1O [compound 180],1.09*
4,COc1ccc(Nc2ncc(Br)c(NCC3CC3)n2)cn1 [compound 191],1.63*
5,CN(C)S(=O)(=O)Oc1cccc(Nc2ncc(Cl)c(NC3CC3)n2)c1 [compound 244],2.26*
6,CCC(=O)c1ccc(Nc2ncc(Cl)c(NC3CC3)n2)cc1 [compound 257],2.34*
7,Cc1cc(O)ccc1Nc1ncc(Cl)c(NC2CC2)n1 [compound 177],1.09*

# Same assay, conditions: HPLC reversed-phase C 18, EEC Directive 79/831 Annex V.A8; method **: 43° C., 0.1% aqueous phosphoric acid and acetonitrile, linear gradient 10% to 95% acetonitrile
row,SMILES,logP
1,CN1CCN(c2ccc(Nc3ncc(Cl)c(NC4CC4)n3)cc2C(F)(F)F)CC1 [compound 846],1.38**
2,CSc1cccc(Nc2nc(C)c(Cl)c(NC3CC3)n2)c1 [compound 837],2.23**

# Same assay, conditions: HPLC reversed-phase C 18, EEC Directive 79/831 Annex V.A8; method *: 40° C., 0.1% aqueous formic acid and acetonitrile, linear gradient 10% to 95% acetonitrile
row,SMILES,logP
1,O=C1OCCN1c1cccc(Nc2ncc(Br)c(NC3CC3)n2)c1 [compound 842],1.51*
2,CC1COC(=O)N1c1cccc(Nc2ncc(F)c(NC3CC3)n2)c1 (stereo not shown) [compound 802],1.18*
3,O=C(O)c1cccc(Nc2ncc(Cl)c(NC3CC3)n2)c1 [compound 785],1.32*
4,O=C(c1cccc(Nc2ncc(Cl)c(NC3CC3)n2)c1)N1CCCC1 [compound 848],1.57*
5,CC(=O)Cc1cccc(Nc2ncc(Cl)c(NCC3CC3)n2)c1 [compound 781],1.67*

# Same assay, conditions: method **: HPLC reversed-phase C 18, 43° C., 0.1% aqueous phosphoric acid and acetonitrile, linear gradient 10% to 95% acetonitrile
row,SMILES,logP
1,Fc1cnc(Nc2ccccc2)nc1NC1CC1 [compound 42],1.45**
2,NS(=O)(=O)c1ccc(Nc2ncc(Cl)c(NCC3CC3)n2)cc1 [compound 8],1.52**

# Same assay, conditions: method **: HPLC reversed-phase C 18, temperature 43° C.; mobile phase 0.1% aqueous phosphoric acid and acetonitrile; linear gradient 10% to 95% acetonitrile
row,SMILES,logP
1,CC(=O)c1ccc(Nc2ncc(C(F)(F)F)c(NC3CC3)n2)cc1 [compound 656],2.8**
2,O=C1CCCN1c1cc(F)cc(Nc2ncc(Cl)c(NC3CC3)n2)c1 [compound 625],1.83**

# Same assay, conditions: method **: HPLC, reversed-phase C 18, 43° C., mobile phase 0.1% aqueous phosphoric acid and acetonitrile, linear gradient from 10% to 95% acetonitrile
row,SMILES,logP
1,COCc1cccc(Nc2ncc(Cl)c(NC3CC3(C)C)n2)c1 (stereo not shown) [compound 1028],2.37**

# Same assay, conditions: method *: HPLC reversed-phase C18, 40° C., 0.1% aqueous formic acid and acetonitrile, linear gradient 10% to 95% acetonitrile
row,SMILES,logP
1,O=S(=O)(Cc1ccc(Nc2ncc(Cl)c(NC3CC3)n2)cc1)Nc1ccccc1 [compound 369],2.18*
2,COc1ccc(Nc2ncc(Br)c(NCC3CC3)n2)cc1OC [compound 409],1.68*
3,COc1ccc(Nc2ncc(Cl)c(NC3CC3)n2)cn1 [compound 92],1.34*
4,CN(C)S(=O)(=O)Cc1cccc(Nc2ncc(Cl)c(NC3CC3)n2)c1 [compound 431],1.62*
5,FC(F)(F)Oc1ccc(Nc2ncc(Cl)c(NC3CC3)n2)cc1 [compound 375],2.84*
6,CC(C)C(=O)Nc1cccc(Nc2ncc(Br)c(NCC3CC3)n2)c1 [compound 460],1.85*

# Same assay, conditions: method *: HPLC reversed-phase C 18, temperature 40° C.; mobile phase 0.1% aqueous formic acid and acetonitrile; linear gradient 10% to 95% acetonitrile
row,SMILES,logP
1,CC(=O)c1ccc(Nc2ncc(C(F)(F)F)c(NC3CC3)n2)cc1 [compound 656],2.7*;
2,COc1cc(Nc2ncc(Br)c(NC3CC3)n2)ccc1F [compound 568],2.05*
3,CC(C)(C)C(=O)Nc1ccc(Nc2ncc(C(F)(F)F)c(NC3CC3)n2)cc1 [compound 647],2.46*
4,CC(C)(CF)C(=O)Nc1cccc(Nc2ncc(F)c(NC3CC3)n2)c1 [compound 600],1.55*
5,CCc1cccc(Nc2ncc(Cl)c(NC3CC3)n2)c1 [compound 634],2.35*
6,O=C(NCC(F)(F)F)c1cccc(Nc2ncc(Br)c(NC3CC3)n2)c1 [compound 622],1.91*

# Same assay, conditions: method *: HPLC, reversed-phase C 18, 40° C., mobile phase 0.1% aqueous formic acid and acetonitrile, linear gradient from 10% to 95% acetonitrile
row,SMILES,logP
1,COCc1cccc(Nc2ncc(Cl)c(NC3CC3(C)C)n2)c1 (stereo not shown) [compound 1028],2.36*;
2,Clc1cnc(Nc2ccc(Sc3ccccc3)cc2)nc1NC1CC1 [compound 1013],3.69*
3,CCSCc1cccc(Nc2ncc(Cl)c(NC3CC3)n2)c1 [compound 986],2.55*

# Same assay, conditions: pH 2.3; read-out: logP (pH2.3)
row,SMILES,chromatographic logP
1,"Clc1ncc(Cl)c(NCC2CC2)n1 [2,5-dichloro-N-(cyclopropylmethyl)pyrimidine-4-amine]",2.51
2,"CC(Nc1nc(Cl)ncc1Cl)C1CC1 (stereo not shown) [2,5-dichloro-N-(1-cyclopropylethyl)pyrimidine-4-amine]",2.97
3,Clc1ncc(Br)c(NCC2CC2)n1 [5-bromo-2-chloro-N-(cyclopropylmethyl)pyrimidine-4-amine],2.69
